PMC6406907, “A H2AX–CARP-1 Interaction Regulates Apoptosis Signaling Following DNA Damage” (Cancers, 2019)
No end group written: not given here. HA = not defined here

Tested on: HeLa cells
Experiment: MTT cell viability/growth inhibition, HeLa
Assay type: cell-based, human
Settings: for cell viability: 10 μM, HeLa, mean of three independent experiments; for growth inhibition of EGFP-CARP-1 / EGFP-H2AX (1–35)-expressing cells: HeLa sublines vs EGFP-expressing counterparts
Method: Routine maintenance and culture of MDA-MB-468 (lacking estrogen receptor; ER and having mutant p53) human triple-negative breast cancer (TNBC) cells, human cervical cancer HeLa, human kidney cancer UOK 262, non-small-cell lung cancer H1975, and HCC827 cells was carried out essentially as described previously. Generation and characterization of MDA-MB-468 cells expressing reduced CARP-1 was described previously. The stable sublines were generated by transfecting the MDA-MB-468 and Hela cells with the pcDNA3 vector, pcDNA3-CARP-1 wild-type (WT)-myc-His clone 6.1.2, pcDNA3-CARP-1(Δ600–650)-myc-His, pcDNA3-EGFP, pcDNA3-EGFP-H2AX (1–35), or pcDNA3-EGFP-CARP-1 (636–650) plasmids, followed by selection in the presence of 800 μg/mL neomycin using described methods. The cell lysates from wild-type, untransfected cells, neomycin-resistant pools, or individual sublines were then subjected to MTT-based viability, confocal, immunoprecipitation (IP), and Western blot (WB) analyses as below.
The cell growth inhibition was assessed using an MTT assay following the established protocols described by us previously.
Here, we utilized human TNBC MDA-MB-468 and human cervical cancer HeLa cells to conduct an MTT-based dose-response analysis using Adriamycin and CFM compounds. […] Since Adriamycin, CFM-4, and CFM-4.16 have molecular masses of 543.3, 404.9, and 440.3, respectively, we chose to use an equimolar dose of each compound in the MTT assays. […] Prior reports established that phosphorylation of H2AX at serine 139 (γ-H2AX) is involved in DNA damage repair and apoptotic signaling by ATM/ATR and JNKs, respectively. Next, the MDA-MB-468, HeLa, and the kidney cancer UOK 262 cells were treated with a 10 μM dose of the CFM-4.16 or Adriamycin for various time periods. The cell lysates from the control, untreated, and treated cells were analyzed by WB for expression of CARP-1, phospho-JNK1/2, phospho-H2AX, and poly ADP ribose polymerase (PARP) proteins. […] The H2AX activation is also indicative of DNA damage and involves pro-apoptotic JNKs. Our data in Figure 1C and Figure S1B,C (Supplementary Materials) also show activation of JNKs; however, a robust JNK activation is co-incident with H2AX phosphorylation following treatments with Adriamycin or CFM-4.16.
Figure 8 Ectopic expression of TAT-CARP-1 (636–650) peptide results in enhanced viabilities of Adriamycin-treated cells. MDA-MB-468 (A) or HeLa (B) cells were pre-incubated with 300 μg/mL indicated peptides for 72 h, followed by treatments with the noted dose and time of Adriamycin. Determination of viable/live cells was carried out using an MTT assay as described in Section 2. The bar charts in panels A and B represent means of three and two independent experiments, respectively; bars, SE. (C) Indicated cells were either pre-incubated with 6 μg/mL indicated peptides for 72 h or not (Control), followed by treatments with Adriamycin as noted. Cells were then processed for immunofluorescence staining for TAT-CARP-1 peptide (red), γH2AX (green), and DAPI (blue) as detailed in Section 2 and Figure S3 (Supplementary Materials). Insets in C show enlarged areas of respective photomicrographs to indicate presence of TAT-CARP-1 peptide and γH2AX in respective columns. The insets in the top and middle rows of the merge column show co-localization of TAT-CARP-1 peptide, and γH2AX (magnification: 250×).
Figure S7. Disruption of H2AX interaction with CARP-1 results in enhanced viabilities of CFM-4, CFM-4.16, or Adriamycin-treated cells in part due to reduced γH2AX and apoptosis. (A,B,C) Indicated HeLa cell lines were treated with DMSO (Control), noted dose and time of Adriamycin, CFM-4, or CFM-4.16 compounds. Determination of viable/live cells was carried out by MTT assay as in methods. The columns in bar charts in panels A, B, C represent means of three independent […]
experiments; bars, SE. […]

Compound: COc1cccc2c1C(=O)c1c(O)c3c(c(O)c1C2=O)C[C@@](O)(C(=O)CO)C[C@@H]3O[C@H]1C[C@H](N)[C@H](O)[C@H](C)O1 [Adriamycin, doxorubicin, reference compound]
- cell viability: inhibited viabilities of both the cell lines in a time-dependent manner
- growth inhibition of CARP-1 (Δ600–650)-expressing cells (HeLa CARP-1 (Δ600–650) vs WT CARP-1-expressing counterparts, mean of three experiments): resistant to inhibition by CFM-4 or ADR
- growth inhibition of EGFP-CARP-1 / EGFP-H2AX (1–35)-expressing cells (mean of three experiments): resistant to inhibition by CFM-4.16 or ADR

Compound: His-TAT-HA-CARP-1 (636–650): His-TAT-HA-tagged CARP-1 (636–650) peptide, >95% purity, commercially synthesized ({His-TAT-HA}-PKTMKVNDLRKELES; reading uncertain; UniProt Q8IX12 636-650, looked up, fragment)
- viability of Adriamycin-treated cells (HeLa pre-incubated with 300 μg/mL peptide, 72 h, then Adriamycin, vs EGFP, mean of two experiments): moderate, statistically significant increase in viabilities

Compound: EGFP-CARP-1 (636–650): EGFP-tagged fusion protein stably expressed in MDA-MB-468 and HeLa sublines (PKTMKVNDLRKELES; also: EGFP fusion kept, end not given here)
- growth inhibition of EGFP-CARP-1 / EGFP-H2AX (1–35)-expressing cells (mean of three experiments): resistant to inhibition by CFM-4.16 or ADR

Compound: O=C1N(Cc2ccccc2Cl)c2ccccc2C12NN=C(c1cccc(Cl)c1)S2 (centres unmarked) [CFM-4.16]
- cell viability: inhibited viabilities of both the cell lines in a time-dependent manner
- growth inhibition of EGFP-CARP-1 / EGFP-H2AX (1–35)-expressing cells (mean of three experiments): resistant to inhibition by CFM-4.16 or ADR

Compound: EGFP-H2AX (1–35): EGFP-tagged fusion protein stably expressed in MDA-MB-468 and HeLa sublines (MSGRGKTGGKARAKAKSRSSRAGLQFPVGRVHRLL; also: EGFP fusion, end not given here; UniProt P16104 1-35, looked up, fragment)
- growth inhibition of EGFP-CARP-1 / EGFP-H2AX (1–35)-expressing cells (mean of three experiments): resistant to inhibition by CFM-4.16 or ADR
